Molecules are shown by their SMILES. pIC50: −log10 of the molar value.

By pIC50 is commonly meant the IC50 on a negative log10 scale, so that one unit is a factor of ten. Low readings indicate a high IC50, high ones a low IC50.

The target of this assay is S-adenosylhomocysteine hydrolase (Homo sapiens). The assay can be described thus: Inhibition of S-adenosylhomocysteine hydrolase (unknown origin).
Compound `Nc1ncc(Br)c2c1ncn2[C@@H]1C=C(CO)[C@@H](O)[C@H]1O` had a negative-log IC50 (pIC50) of 8.57. In the case of `Nc1ncc(Br)c2c1ncn2C1=C[C@H](CO)[C@@H](O)[C@H]1O` it was 7.89. `Nc1ncc(Br)c2c1ncn2C1=C[C@@H](CO)[C@H](O)[C@@H]1O` gave a negative logarithm of the IC50 (pIC50) of 5.00.

The record behind these values is BindingDB's records for doi:10.1016/j.bmcl.2015.12.061 (Auburn University, 2016).
